Measurements: patent US20230139171A1 (SITA Information Networking Computing UK Limited, priority 2019, published 2023)

Key:
Type in all cases: cell-based
human TLR9 = target: T1, human TLR9 (Homo sapiens, UniProt Q9NR96); test: TLR9 inhibition reporter assay (HEK-Blue cells, SEAP reporter, ODN2006 stimulation); details: HEK-Blue cells overexpressing human TLR9, SEAP reporter, ODN2006 5 nM
T1 construct: host or cells: HEK-Blue cells
T1 sequence (Q9NR96 26-1032): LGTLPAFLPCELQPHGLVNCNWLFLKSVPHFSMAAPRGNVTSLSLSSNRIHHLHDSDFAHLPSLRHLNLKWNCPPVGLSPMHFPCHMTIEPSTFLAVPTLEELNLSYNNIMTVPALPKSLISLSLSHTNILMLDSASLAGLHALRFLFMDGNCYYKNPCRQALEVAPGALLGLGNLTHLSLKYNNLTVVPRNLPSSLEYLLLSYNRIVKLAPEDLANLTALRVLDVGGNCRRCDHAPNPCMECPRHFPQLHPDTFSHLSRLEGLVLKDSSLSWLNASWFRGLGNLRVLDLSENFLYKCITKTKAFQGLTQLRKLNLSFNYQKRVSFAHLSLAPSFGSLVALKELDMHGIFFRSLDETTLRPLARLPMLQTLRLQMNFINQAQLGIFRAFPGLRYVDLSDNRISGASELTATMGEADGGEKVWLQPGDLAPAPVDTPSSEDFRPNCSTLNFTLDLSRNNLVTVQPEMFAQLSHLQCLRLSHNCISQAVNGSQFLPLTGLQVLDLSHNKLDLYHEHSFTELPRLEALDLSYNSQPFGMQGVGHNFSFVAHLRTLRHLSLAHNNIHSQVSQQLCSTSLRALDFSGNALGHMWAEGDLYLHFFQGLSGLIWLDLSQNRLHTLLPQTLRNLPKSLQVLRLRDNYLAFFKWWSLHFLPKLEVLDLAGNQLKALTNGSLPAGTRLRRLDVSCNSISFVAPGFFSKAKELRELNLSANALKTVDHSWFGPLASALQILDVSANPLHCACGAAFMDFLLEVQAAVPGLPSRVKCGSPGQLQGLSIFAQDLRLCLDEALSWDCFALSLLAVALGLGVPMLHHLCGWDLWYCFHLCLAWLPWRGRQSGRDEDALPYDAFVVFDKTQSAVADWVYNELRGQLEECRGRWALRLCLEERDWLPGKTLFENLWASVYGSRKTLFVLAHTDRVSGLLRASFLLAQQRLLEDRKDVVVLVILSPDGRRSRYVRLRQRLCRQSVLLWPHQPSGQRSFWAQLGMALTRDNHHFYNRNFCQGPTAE
In short: (§1)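 HEK-Blue cells overexpressing human TLR7, TLR8 or TLR9 carry a SEAP reporter driven by NF-κB/AP-1 sites. Compounds (0.05 nM–50 μM) were preincubated 30 min at room temperature, then cells were stimulated with gardiquimod 7.5 μM (TLR7), R848 15.9 μM (TLR8) or ODN2006 5 nM (TLR9) for 22 h at 37 °C.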

human TLR7 = target: T2, human TLR7 (Homo sapiens, UniProt Q9NYK1); test: TLR7 inhibition reporter assay (HEK-Blue cells, SEAP reporter, gardiquimod stimulation); details: HEK-Blue cells overexpressing human TLR7, SEAP reporter, gardiquimod 7.5 μM; read-out: TLR7 IC50
T2 construct: host or cells: HEK-Blue cells
T2 sequence (Q9NYK1 27-1049): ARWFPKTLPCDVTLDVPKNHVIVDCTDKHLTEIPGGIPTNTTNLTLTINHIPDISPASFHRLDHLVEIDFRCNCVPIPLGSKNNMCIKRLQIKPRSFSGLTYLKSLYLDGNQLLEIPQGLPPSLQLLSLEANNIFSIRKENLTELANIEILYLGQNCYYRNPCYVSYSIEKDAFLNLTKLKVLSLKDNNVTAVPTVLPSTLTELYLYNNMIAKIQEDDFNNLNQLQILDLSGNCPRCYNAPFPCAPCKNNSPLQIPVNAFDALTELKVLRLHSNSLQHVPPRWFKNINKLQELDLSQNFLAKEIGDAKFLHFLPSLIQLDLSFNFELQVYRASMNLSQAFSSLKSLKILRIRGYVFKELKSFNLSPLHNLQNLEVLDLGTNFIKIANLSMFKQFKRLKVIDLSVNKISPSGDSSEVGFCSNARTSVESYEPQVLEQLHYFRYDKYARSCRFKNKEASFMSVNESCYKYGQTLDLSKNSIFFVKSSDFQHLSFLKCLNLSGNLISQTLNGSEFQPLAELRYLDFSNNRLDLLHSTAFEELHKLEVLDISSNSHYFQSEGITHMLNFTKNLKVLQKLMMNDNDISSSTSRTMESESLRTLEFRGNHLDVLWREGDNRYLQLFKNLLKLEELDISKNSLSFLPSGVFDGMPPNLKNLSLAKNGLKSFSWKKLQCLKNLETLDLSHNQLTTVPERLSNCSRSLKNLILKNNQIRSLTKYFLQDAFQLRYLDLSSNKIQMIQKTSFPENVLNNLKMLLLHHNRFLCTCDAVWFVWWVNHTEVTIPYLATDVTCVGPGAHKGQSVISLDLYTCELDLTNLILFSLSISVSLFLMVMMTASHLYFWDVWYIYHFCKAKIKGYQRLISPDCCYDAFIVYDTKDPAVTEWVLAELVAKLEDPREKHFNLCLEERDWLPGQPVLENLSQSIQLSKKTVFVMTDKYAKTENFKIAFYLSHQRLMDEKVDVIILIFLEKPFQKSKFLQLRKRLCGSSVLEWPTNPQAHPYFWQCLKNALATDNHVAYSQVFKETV
In short: as §1

human TLR8 = target: T3, human TLR8 (Homo sapiens, UniProt Q9NR97); test: TLR8 inhibition reporter assay (HEK-Blue cells, SEAP reporter, R848 stimulation); details: HEK-Blue cells overexpressing human TLR8, SEAP reporter, R848 15.9 μM; read-out: TLR8 IC50
T3 construct: host or cells: HEK-Blue cells
T3 sequence (Q9NR97 27-1041): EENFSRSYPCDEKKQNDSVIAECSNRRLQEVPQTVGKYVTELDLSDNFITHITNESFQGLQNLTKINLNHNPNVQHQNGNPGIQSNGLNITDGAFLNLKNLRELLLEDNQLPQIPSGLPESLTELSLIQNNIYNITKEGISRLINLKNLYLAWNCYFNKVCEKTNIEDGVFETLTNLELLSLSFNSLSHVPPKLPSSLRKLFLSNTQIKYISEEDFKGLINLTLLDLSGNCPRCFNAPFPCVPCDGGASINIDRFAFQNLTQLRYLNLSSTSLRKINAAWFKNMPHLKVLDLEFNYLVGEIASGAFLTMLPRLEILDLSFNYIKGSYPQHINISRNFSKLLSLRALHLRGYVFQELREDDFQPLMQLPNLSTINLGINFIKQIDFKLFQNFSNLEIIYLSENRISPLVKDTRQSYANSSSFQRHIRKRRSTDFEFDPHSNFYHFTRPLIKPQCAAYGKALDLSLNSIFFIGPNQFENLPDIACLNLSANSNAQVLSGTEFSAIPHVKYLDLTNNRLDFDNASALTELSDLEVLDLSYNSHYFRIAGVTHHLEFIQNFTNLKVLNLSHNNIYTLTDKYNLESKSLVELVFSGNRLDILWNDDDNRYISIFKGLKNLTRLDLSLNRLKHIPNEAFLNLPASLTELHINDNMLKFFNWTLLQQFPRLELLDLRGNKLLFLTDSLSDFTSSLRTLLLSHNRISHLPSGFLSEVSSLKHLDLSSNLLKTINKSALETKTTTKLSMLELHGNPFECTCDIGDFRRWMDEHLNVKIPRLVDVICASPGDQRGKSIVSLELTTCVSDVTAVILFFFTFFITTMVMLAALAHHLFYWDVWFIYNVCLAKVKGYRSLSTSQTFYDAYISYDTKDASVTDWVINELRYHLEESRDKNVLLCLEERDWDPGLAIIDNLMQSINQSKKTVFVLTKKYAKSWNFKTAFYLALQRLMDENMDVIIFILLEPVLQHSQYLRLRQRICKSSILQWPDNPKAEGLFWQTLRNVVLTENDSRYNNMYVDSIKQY
In short: as §1

IC50 (human TLR9) [nM]	IC50 (human TLR7) [nM]	IC50 (human TLR8) [nM]	Compound
19500	6.02	4.32	Cc1c(-c2[nH]c3sc(C4CCN(CC5CCOCC5)CC4)nc3c2C(C)C)cn2ncnc2c1C [Example 48, 5-(7,8-dimethyl-[1,2,4]triazolo[1,5-a]pyridin-6-yl)-6-isopropyl-2-(1-((tetrahydro-2H-pyran-4-yl)methyl)piperidin-4-yl)-4H-pyrrolo[3,2-d]thiazole]
9220	0.97	0.48	Cc1c(-c2[nH]c3sc(C4CCN(C)CC4)nc3c2C(C)C)cn2ncnc2c1C [Example 49, 5-(7,8-dimethyl-[1,2,4]triazolo[1,5-a]pyridin-6-yl)-6-isopropyl-2-(1-methylpiperidin-4-yl)-4H-pyrrolo[3,2-d] thiazole]
17300	1.27	2.74	CCN1CCC(c2nc3c(C(C)C)c(-c4cn5ncnc5c(C)c4C)[nH]c3s2)CC1 [Example 50, 5-(7,8-dimethyl-[1,2,4]triazolo[1,5-a]pyridin-6-yl)-2-(1-ethylpiperidin-4-yl)-6-isopropyl-4H-pyrrolo[3,2-d]thiazole]
8800	1.59	1.03	CCCN1CCC(c2nc3c(C(C)C)c(-c4cn5ncnc5c(C)c4C)[nH]c3s2)CC1 [Example 51, 5-(7,8-dimethyl-[1,2,4]triazolo[1,5-a]pyridin-6-yl)-6-isopropyl-2-(1-propylpiperidin-4-yl)-4H-pyrrolo[3,2-d]thiazole]
18000	2.9	4.22	Cc1c(-c2[nH]c3sc(C4CCN(CC(C)C)CC4)nc3c2C(C)C)cn2ncnc2c1C [Example 52, 5-(7,8-dimethyl-[1,2,4]triazolo[1,5-a]pyridin-6-yl)-2-(1-isobutylpiperidin-4-yl)-6-isopropyl-4H-pyrrolo[3,2-d]thiazole]
5070	0.94	0.79	Cc1c(-c2[nH]c3sc(C4CCN(CC5CC5)CC4)nc3c2C(C)C)cn2ncnc2c1C [Example 53, 2-(1-(cyclopropylmethyl)piperidin-4-yl)-5-(7,8-dimethyl-[1,2,4]triazolo[1,5-a]pyridin-6-yl)-6-isopropyl-4H-pyrrolo[3,2-d]thiazole]
6670	1.1	3.74	CCC(CC)CN1CCC(c2nc3c(C(C)C)c(-c4cn5ncnc5c(C)c4C)[nH]c3s2)CC1 [Example 54, 5-(7,8-dimethyl-[1,2,4]triazolo[1,5-a]pyridin-6-yl)-2-(1-(2-ethylbutyl)piperidin-4-yl)-6-isopropyl-4H-pyrrolo[3,2-d]thiazole]
23100	4.24	1.34	Cc1c(-c2[nH]c3sc(C4CCN(CC(=O)N(C)C)CC4)nc3c2C(C)C)cn2ncnc2c1C [Example 57, 2-(4-(5-(7,8-dimethyl-[1,2,4]triazolo[1,5-a]pyridin-6-yl)-6-isopropyl-4H-pyrrolo[3,2-d]thiazol-2-yl)piperidin-1-yl)-N,N-dimethylacetamide]
32800	3.01	1.43	Cc1c(-c2[nH]c3sc(C4CCN(CC(N)=O)CC4)nc3c2C(C)C)cn2ncnc2c1C [Example 58, 2-(4-(5-(7,8-dimethyl-[1,2,4]triazolo[1,5-a]pyridin-6-yl)-6-isopropyl-4H-pyrrolo[3,2-d]thiazol-2-yl)piperidin-1-yl)acetamide]
5490	2.42	41.9	COc1cc(-c2[nH]c3sc(C4CCC(N5CC6(C5)CS(=O)(=O)C6)CC4)nc3c2C(C)C)cn2ncnc12 (stereo not drawn) [Example 97, 6-(4-(6-isopropyl-5-(8-methoxy-[1,2,4]triazolo[1,5-a]pyridin-6-yl)-4H-pyrrolo[3,2-d]thiazol-2-yl)cyclohexyl)-2-thia-6-azaspiro[3.3]heptane 2,2-dioxide]
14300	2.25	90.9	COc1cc(-c2[nH]c3sc(C4CCC(NC5(C#N)CC5)CC4)nc3c2C(C)C)cn2ncnc12 (stereo not drawn) [Example 106, 1-((4-(6-isopropyl-5-(8-methoxy-[1,2,4]triazolo[1,5-a]pyridin-6-yl)-4H-pyrrolo[3,2-d]thiazol-2-yl)cyclohexyl)amino)cyclopropane-1-carbonitrile]
15400	3.6	190	COc1cc(-c2[nH]c3sc(C4CCC(NC5(C#N)CC5)CC4)nc3c2C(C)C)cn2ncnc12 (stereo not drawn) [Example 107, 1-((4-(6-isopropyl-5-(8-methoxy-[1,2,4]triazolo[1,5-a]pyridin-6-yl)-4H-pyrrolo[3,2-d]thiazol-2-yl)cyclohexyl)amino)cyclopropane-1-carbonitrile]
28600	7.72	31.5	COc1cc(-c2[nH]c3sc(C4CCC(N(C)C5COC5)CC4)nc3c2C(C)C)cn2ncnc12 (stereo not drawn) [Example 124, N-(4-(6-isopropyl-5-(8-methoxy-[1,2,4]triazolo[1,5-a]pyridin-6-yl)-4H-pyrrolo[3,2-d]thiazol-2-yl)cyclohexyl)-N-methyloxetan-3-amine]
